Results as given in publication PMC10511884 (Frontiers in Chemistry, 2023).

Assays:
COX-2 = molecular target: T1, COX-2 (Homo sapiens, UniProt P35354); assay: In vitro COX-2 enzyme inhibitory assay; type: biochemical; conditions: mean ± SEM; n = 3
T1 construct: purchased Sigma-Aldrich C0858
T1 sequence (P35354 18-604): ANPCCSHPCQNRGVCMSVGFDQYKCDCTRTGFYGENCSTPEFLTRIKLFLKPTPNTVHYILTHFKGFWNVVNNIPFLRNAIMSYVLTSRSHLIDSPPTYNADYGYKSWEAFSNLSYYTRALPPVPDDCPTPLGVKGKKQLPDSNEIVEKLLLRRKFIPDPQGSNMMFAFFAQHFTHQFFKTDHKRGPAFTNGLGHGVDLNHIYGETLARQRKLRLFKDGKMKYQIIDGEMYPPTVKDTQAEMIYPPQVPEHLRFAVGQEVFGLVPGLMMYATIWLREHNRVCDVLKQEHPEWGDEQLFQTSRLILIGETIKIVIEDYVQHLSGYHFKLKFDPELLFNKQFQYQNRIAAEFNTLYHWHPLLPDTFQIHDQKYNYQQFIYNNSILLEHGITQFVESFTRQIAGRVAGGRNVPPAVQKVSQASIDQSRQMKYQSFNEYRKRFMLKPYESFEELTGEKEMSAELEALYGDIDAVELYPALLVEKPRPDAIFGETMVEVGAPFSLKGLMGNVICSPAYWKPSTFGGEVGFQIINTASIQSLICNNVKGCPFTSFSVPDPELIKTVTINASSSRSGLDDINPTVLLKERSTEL
Method: (§1) In a nutshell, the test specimens were made in progressively higher concentrations. Furthermore, enzyme solutions for COX-1 from a sheep source (CAT: C0733-5000UN, Sigma-Aldrich) and COX-2 from a human recombinant source (CAT: C0858) were developed. COX-1 has a concentration of 0.7–0.8 g/L, whereas COX-2 has a concentration of 300 units/mL. […] The COX-2 enzyme solution was primed at 300 U/mL levels. 10 μL of the enzyme solution was kept on ice (4°C) for 5–6 min before 50 µL of the required co-factor solution was added. This solution contains 1 mM hematin in a 0.1 M Tris-buffer with pH 8.0, 0.24 mM tetramethyl-p-phenylenediamine dihydrochloride (TMPD), and 0.9 mM glutathione. Then, for the next 5–10 min, the enzyme solution (60 µL) and experiment samples (20 µL) of different strengths has been kept at the normal temperature. Similar to that, 20 µL of 30 mM arachidonic acid was utilized to start the procedure. The mixture’s temperature was held at 37°C for an additional 15 min. A UV-visible spectrophotometer was used to determine the absorbance at 570 nm after which the process was halted by adding HCl. Using the absorbance value per unit time, the percentage of COX-2 inhibition was computed. Celecoxib served as the standard control in the present study.

COX-1 = molecular target: T2, COX-1 (Ovis aries, UniProt P05979); assay: In vitro COX-1 enzyme inhibitory assay; type: biochemical, sheep; conditions: mean ± SEM; n = 3
T2 construct: purchased Sigma-Aldrich C0733-5000UN
T2 sequence (P05979 25-600): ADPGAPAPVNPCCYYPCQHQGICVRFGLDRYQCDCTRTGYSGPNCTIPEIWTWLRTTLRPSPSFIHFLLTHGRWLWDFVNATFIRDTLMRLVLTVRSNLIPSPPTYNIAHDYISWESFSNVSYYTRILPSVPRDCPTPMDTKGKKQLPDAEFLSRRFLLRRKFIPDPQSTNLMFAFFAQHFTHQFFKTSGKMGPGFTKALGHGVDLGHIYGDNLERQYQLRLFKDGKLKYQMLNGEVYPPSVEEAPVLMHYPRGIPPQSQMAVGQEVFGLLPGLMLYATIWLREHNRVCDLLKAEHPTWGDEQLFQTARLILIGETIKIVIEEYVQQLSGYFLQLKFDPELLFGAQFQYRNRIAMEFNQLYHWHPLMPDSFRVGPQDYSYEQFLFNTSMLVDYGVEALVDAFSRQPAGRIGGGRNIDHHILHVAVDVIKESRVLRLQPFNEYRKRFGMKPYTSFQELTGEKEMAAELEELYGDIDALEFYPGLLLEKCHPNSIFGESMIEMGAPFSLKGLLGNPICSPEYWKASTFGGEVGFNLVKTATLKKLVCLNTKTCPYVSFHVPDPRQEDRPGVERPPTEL
Method: as §1

Row | IC50 (COX-2) [µM] | IC50 (COX-1) [µM] | SMILES
1 | 2.52 ± 0.02 | 239 ± 2.3 | Cc1cc(C2=C(C(F)(F)F)NC(=O)NC2c2ccccc2)no1 (centres unmarked) [Compound C1, 5-(5-methylisoxazol-3-yl)-4-phenyl-6-(trifluoromethyl)-3,4-dihydropyrimidin-2(1H)-one]
2 | 2.43 ± 0.05 | 172 ± 1.9 | COc1ccc(C2NC(=O)NC(C(F)(F)F)=C2c2cc(C)on2)cc1 (centres unmarked) [Compound C2, 4-(4-methoxyphenyl)-5-(5-methylisoxazol-3-yl)-6-(trifluoromethyl)-3,4-dihydro-pyrimidin-2(1H)-one]
3 | 0.93 ± 0.01 | 22.6 ± 0.9 | COc1ccc(C2NC(=O)NC(C(F)(F)F)=C2c2cc(-c3ccccc3)on2)cc1O (centres unmarked) [Compound C3, 4-(3-hydroxy-4-methoxyphenyl)-5-(5-phenylisoxazol-3-yl)-6-(trifluoromethyl)-3,4-dihydropyrimidin-2(1H)-one]
4 | 8.27 ± 0.2 | 66.8 ± 1.84 | COc1ccc(C2NC(=O)NC(C(F)(F)F)=C2c2cc(-c3ccc(-c4ccccc4)cc3)on2)cc1 (centres unmarked) [Compound C4, 5-(5-([1,1′-biphenyl]-4-yl)isoxazol-3-yl)-4-(4-methoxyphenyl)-6-(trifluoromethyl)-3,4-dihydropyrimidin-2(1H)-one]
5 | 0.85 ± 0.04 | 35.5 ± 1.49 | O=C1NC(C(F)(F)F)=C(c2cc(-c3ccco3)on2)C(c2ccco2)N1 (centres unmarked) [Compound C5, 4-(furan-2-yl)-5-(5-(furan-2-yl)isoxazol-3-yl)-6-(trifluoromethyl)-3,4-dihydropyrimidin-2(1H)-one]
6 | 0.55 ± 0.03 | 34 ± 1.31 | COc1ccc(C2NC(=O)NC(C(F)(F)F)=C2c2cc(-c3ccco3)on2)cc1 (centres unmarked) [Compound C6, 5-(5-(furan-2-yl)isoxazol-3-yl)-4-(4-methoxyphenyl)-6-(trifluoromethyl)-3,4-dihydro-pyrimidin-2(1H)-one]
7 | 0.74 ± 0.1 | 83.8 ± 0.96 | O=C1NC(C(F)(F)F)=C(c2cc(-c3ccco3)on2)C(c2ccc(C(F)(F)F)cc2)N1 (centres unmarked) [Compound C7, 5-(5-(furan-2-yl)isoxazol-3-yl)-6-(trifluoromethyl)-4-(4-(trifluoromethyl)phenyl)-3,4-dihydropyrimidin-2(1H)-one]
8 | 0.79 ± 0.05 | 91.19 ± 0.51 | Cc1ccc(C2NC(=O)NC(C(F)(F)F)=C2c2cc(-c3ccco3)on2)cc1 (centres unmarked) [Compound C8, 5-(5-(furan-2-yl)isoxazol-3-yl)-4-p-tolyl-6-(trifluoromethyl)-3,4-dihydropyrimidin-2(1H)-one]
9 | 1.7 ± 0.1 | 101 ± 1.17 | O=C1NC(C(F)(F)F)=C(c2cc(-c3ccncc3)on2)C(c2ccccc2)N1 (centres unmarked) [Compound C9, 4-phenyl-5-(5-(pyridin-4-yl)isoxazol-3-yl)-6-(trifluoromethyl)-3,4-dihydropyrimidin-2(1H)-one]
10 | 20 ± 0.4 | 61.9 ± 1.11 | O=C1NC(C(F)(F)F)=C(c2cc(-c3ccncc3)on2)C(c2ccncc2)N1 (centres unmarked) [Compound C10, 4-(Pyridin-4-yl)-5-(5-(pyridin-4-yl)isoxazol-3-yl)-6-(trifluoromethyl)-3,4 dihydropyrimidin-2(1H)-one]
